Laboratory results from patent publication US20220389010A1, “Novel Triazolopyridine Derivatives and Pharmaceutical Composition Comprising Same” (Daewoong Pharmaceutical Co., Ltd., priority 2019, published 2022).

molecular target: T1, Recombinant purified human JAK3 (Homo sapiens, UniProt P52333); assay: JAK3 inhibitory activity test (ADP-Glo kinase assay); format: biochemical; conditions: ATP 5 uM, 1 hour incubation at 30° C.
T1 construct: purchased Promega V9441
T1 sequence (P52333 1-1124): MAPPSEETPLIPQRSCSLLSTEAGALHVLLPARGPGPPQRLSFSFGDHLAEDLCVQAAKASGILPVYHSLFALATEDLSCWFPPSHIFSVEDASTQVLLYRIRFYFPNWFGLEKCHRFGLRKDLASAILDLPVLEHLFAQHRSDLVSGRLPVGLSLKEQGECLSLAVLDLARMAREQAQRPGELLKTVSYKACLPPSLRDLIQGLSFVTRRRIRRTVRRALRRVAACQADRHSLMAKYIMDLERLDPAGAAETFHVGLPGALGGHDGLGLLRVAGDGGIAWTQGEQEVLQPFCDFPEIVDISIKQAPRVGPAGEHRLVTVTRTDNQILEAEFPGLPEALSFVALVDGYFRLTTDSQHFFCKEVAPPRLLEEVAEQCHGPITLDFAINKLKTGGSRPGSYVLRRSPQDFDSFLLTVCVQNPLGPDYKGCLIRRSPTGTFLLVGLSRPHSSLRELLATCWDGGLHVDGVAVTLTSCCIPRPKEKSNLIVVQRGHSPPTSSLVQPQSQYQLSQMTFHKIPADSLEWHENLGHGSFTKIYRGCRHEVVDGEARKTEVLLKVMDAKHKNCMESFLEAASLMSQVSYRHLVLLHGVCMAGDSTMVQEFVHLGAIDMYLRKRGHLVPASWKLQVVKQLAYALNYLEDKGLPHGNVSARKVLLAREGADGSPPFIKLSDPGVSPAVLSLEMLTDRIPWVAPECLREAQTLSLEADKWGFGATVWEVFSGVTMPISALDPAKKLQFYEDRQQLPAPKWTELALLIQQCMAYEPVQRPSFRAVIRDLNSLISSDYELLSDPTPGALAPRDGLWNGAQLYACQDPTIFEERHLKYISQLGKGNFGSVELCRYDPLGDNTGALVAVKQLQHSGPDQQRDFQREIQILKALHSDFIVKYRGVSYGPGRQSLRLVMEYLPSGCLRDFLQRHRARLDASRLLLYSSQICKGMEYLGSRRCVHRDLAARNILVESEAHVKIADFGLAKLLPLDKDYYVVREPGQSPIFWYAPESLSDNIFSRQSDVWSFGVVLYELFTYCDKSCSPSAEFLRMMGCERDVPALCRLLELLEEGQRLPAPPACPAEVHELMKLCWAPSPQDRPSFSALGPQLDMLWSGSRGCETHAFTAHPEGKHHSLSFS
Protocol: The inhibitory activities against JAK3 were measured for the compounds prepared in the above Examples through in vitro analysis on the ADP Glow (Glo) platform.
Specifically, the inhibitory activities against JAK3 were measured using a JAK3 kinase assay kit (Promega, V9441), which was purchased from Promega. Recombinant purified human JAK3 was diluted with 1× kinase reaction buffer (JAK3: 40 mM Tris-CI, pH 7.5, 20 mM MgCl2, 0.1 mg/mL BSA and 50 uM OTT and added to a 96 well plate (JAK3: final concentration of 4 ng per reaction). The compounds prepared in the previous Examples were treated so as to be finally a 1% DMSO aqueous solution, and a substrate cocktail containing ATP (JAK3: final concentration of 5 uM) and 0.2 ug/ul of Poly(Glu4, Tyri) peptide (JAK3 final concentration) in the total 25 uL reactants was added to a 96-well plate to initiate enzymatic reaction. After incubation (30° C.) for 1 hour, equivalent volume (25 uL per reaction) of ADP Glo was added and incubated (30° C.) for 40 minutes at room temperature. Then, a kinase detection reagent (50 uL per reaction) was added and incubated (30° C.) for 30 minutes at room temperature. The kinase activity was measured by chemiluminescence according to the instructions of ADP Glo kinase assay kit, and the inhibitory activity of the compounds according to the present invention was calculated. For the analysis of the results of each compound, Microsoft Excel was used, and IC50 values were calculated by SigmaPlot software.

Row | SMILES | IC50 [nM]
1 | C=CC(=O)Nc1cccc(Oc2cccc3nc(Nc4ccc5scnc5c4)nn23)c1 [Example 12, N-(3-(2-(benzo[d]thiazol-5-ylamino)-[1,2,4]triazolo[1,5-a]pyridin-5-yloxy)phenyl)acrylamide] | 2.6
2 | C=CC(=O)Nc1cccc(Oc2cccc3nc(Nc4cccc(-n5nc(C)cc5C)c4)nn23)c1 [Example 9, N-(3-(2-(3-(3,5-dimethyl-1H-pyrazol-1-yl)phenylamino)-[1,2,4]triazolo[1,5-a]pyridin-5-yloxy)phenyl)acrylamide] | 10.4
3 | C=CC(=O)Nc1cccc(Oc2cccc3nc(Nc4ccc(OCCN(CC)CC)cc4)nn23)c1 [Example 15, N-(3-(2-(4-(2-(diethylamino)ethoxy)phenylamino)-[1,2,4]triazolo[1,5-a]pyridin-5-yloxy)phenyl)acrylamide] | 6.2
4 | C=CC(=O)Nc1cccc(Oc2cccc3nc(Nc4ccc(Oc5ccccc5)cc4)nn23)c1 [Example 13, N-(3-(2-(4-phenoxyphenylamino)-[1,2,4]triazolo[1,5-a]pyridin-5-yloxy)phenyl)acrylamide] | 9.8
5 | C=CC(=O)Nc1cccc(Oc2cccc3nc(Nc4ccc5nc(Cl)sc5c4)nn23)c1 [Example 11, N-(3-(2-(2-chlorobenzo[d]thiazol-6-ylamino)-[1,2,4]triazolo[1,5-a]pyridin-5-yloxy)phenyl)acrylamide] | 10.3
6 | C=CC(=O)Nc1cccc(Oc2cccc3nc(Nc4ccc(C(=O)N5CCOCC5)cc4)nn23)c1 [Example 17, N-(3-(2-(4-(morpholine-4-carbonyl)phenylamino)-[1,2,4]triazolo[1,5-a]pyridin-5-yloxy)phenyl)acrylamide] | 0.7
7 | C=CC(=O)Nc1cccc(Oc2cccc3nc(Nc4ccc(N5CCN(C)CC5)cc4)nn23)c1 [Example 1, N-(3-(2-(4-(4-methylpiperazin-1-yl)phenylamino)-[1,2,4]triazolo[1,5-a]pyridin-5-yloxy)phenyl)acrylamide] | 0.47
8 | C=CC(=O)Nc1cccc(Oc2cccc3nc(Nc4cnn(C)c4)nn23)c1 [Example 2, N-(3-(2-(1-methyl-1H-pyrazol-4-ylamino)-[1,2,4]triazolo[1,5-a]pyridin-5-yloxy)phenyl)acrylamide] | 1.1
9 | C=CC(=O)Nc1cccc(Oc2cccc3nc(Nc4ccc(S(=O)(=O)N5CCCCC5)cc4)nn23)c1 [Example 18, N-(3-(2-(4-(piperidin-1-ylsulfonyl)phenylamino)-[1,2,4]triazolo[1,5-a]pyridin-5-yloxy)phenyl)acrylamide] | 3
10 | C=CC(=O)Nc1cccc(Oc2cccc3nc(Nc4cnn(Cc5cccc(OC)c5)c4)nn23)c1 [Example 14, N-(3-(2-(1-(3-methoxybenzyl)-1H-pyrazol-4-ylamino)-[1,2,4]triazolo[1,5-a]pyridin-5-yloxy)phenyl)acrylamide] | 11.1
11 | C=CC(=O)Nc1cccc(Oc2cccc3nc(Nc4cnn(CCN5CCOCC5)c4)nn23)c1 [Example 19, N-(3-(2-(1-(2-morpholinoethyl)-1H-pyrazol-4-ylamino)-[1,2,4]triazolo[1,5-a]pyridin-5-yloxy)phenyl)acrylamide] | 5.1
12 | C=CC(=O)Nc1cccc(Oc2cccc3nc(Nc4ccc(N(C)C)cc4)nn23)c1 [Example 6, N-(3-(2-(4-(dimethylamino)phenylamino)-[1,2,4]triazolo[1,5-a]pyridin-5-yloxy)phenyl)acrylamide] | 2.1
13 | C=CC(=O)Nc1cccc(Oc2cccc3nc(Nc4cccc(Oc5ccccc5)c4)nn23)c1 [Example 5, N-(3-(2-(3-phenoxyphenylamino)-[1,2,4]triazolo[1,5-a]pyridin-5-yloxy)phenyl)acrylamide] | 35.8
14 | C=CC(=O)Nc1cccc(Oc2cccc3nc(Nc4ccc(CN(C)C)cc4)nn23)c1 [Example 16, N-(3-(2-(4-((dimethylamino)methyl)phenylamino)-[1,2,4]triazolo[1,5-a]pyridin-5-yloxy)phenyl)acrylamide] | 0.7
15 | C=CC(=O)Nc1cccc(Oc2cccc3nc(Nc4ccc(N5CCOCC5)cc4)nn23)c1 [Example 4, N-(3-(2-(4-morpholinophenylamino)-[1,2,4]triazolo[1,5-a]pyridin-5-yloxy)phenyl)acrylamide] | 0.6
16 | C=CC(=O)Nc1cccc(Oc2cccc3nc(Nc4cnn(C(F)F)c4)nn23)c1 [Example 8, N-(3-(2-(1-(difluoromethyl)-1H-pyrazol-4-ylamino)-[1,2,4]triazolo[1,5-a]pyridin-5-yloxy)phenyl)acrylamide] | 1.3

Continued, values first:

Row | IC50 [nM] | SMILES
17 | 13.1 | C=CC(=O)Nc1ccc(F)c(Oc2cccc3nc(Nc4cnn(C)c4)nn23)c1 [Example 30, N-(4-fluoro-3-(2-(1-methyl-1H-pyrazol-4-ylamino)-[1,2,4]triazolo[1,5-a]pyridin-5-yloxy)phenyl)acrylamide]
18 | 18.2 | C=CC(=O)Nc1ccc(F)c(Oc2cccc3nc(Nc4cnn(C(F)F)c4)nn23)c1 [Example 31, N-(3-(2-(1-(difluoromethyl)-1H-pyrazol-4-ylamino)-[1,2,4]triazolo[1,5-a]pyridin-5-yloxy)-4-fluorophenyl)acrylamide]
19 | 1.2 | C=CC(=O)Nc1ccc(F)c(Oc2cccc3nc(Nc4ccc5ncsc5c4)nn23)c1 [Example 28, N-(3-(2-(benzo[d]thiazol-6-ylamino)-[1,2,4]triazolo[1,5-a]pyridin-5-yloxy)-4-fluorophenyl)acrylamide]
20 | > 400 | C=CC(=O)Nc1cccc(Oc2cccc3nc(Nc4cccc5ccccc45)nn23)c1 [Example 23, N-(3-(2-(naphthalen-1-ylamino)-[1,2,4]triazolo[1,5-a]pyridin-5-yloxy)phenyl)acrylamide]
21 | 15.5 | C=CC(=O)Nc1cccc(Oc2cccc3nc(Nc4cnc5ccccc5c4)nn23)c1 [Example 24, N-(3-(2-(quinolin-3-ylamino)-[1,2,4]triazolo[1,5-a]pyridin-5-yloxy)phenyl)acrylamide]
22 | 1.3 | C=CC(=O)Nc1ccc(F)c(Oc2cccc3nc(Nc4ccc(N5CCOCC5)cc4)nn23)c1 [Example 27, N-(4-fluoro-3-(2-(4-morpholinophenylamino)-[1,2,4]triazolo[1,5-a]pyridin-5-yloxy)phenyl)acrylamide]
23 | > 80 | C=CC(=O)Nc1cccc(Oc2cccc3nc(Nc4cnc5ncn(C)c5c4)nn23)c1 [Example 26, N-(3-(2-(1-methyl-1H-imidazo[4,5-b]pyridin-6-ylamino)-[1,2,4]triazolo[1,5-a]pyridin-5-yloxy)phenyl)acrylamide]
24 | 0.7 | C=CC(=O)Nc1ccc(F)c(Oc2cccc3nc(Nc4ccc(N5CCN(C)CC5)cc4)nn23)c1 [Example 29, N-(4-fluoro-3-(2-(4-(4-methylpiperazin-1-yl)phenylamino)-[1,2,4]triazolo[1,5-a]pyridin-5-yloxy)phenyl)acrylamide]
25 | 0.7 | C=CC(=O)Nc1cccc(Oc2cccc3nc(Nc4ccc(N5CCOCC5)nc4)nn23)c1 [Example 21, N-(3-(2-(6-morpholinopyridin-3-ylamino)-[1,2,4]triazolo[1,5-a]pyridin-5-yloxy)phenyl)acrylamide]
26 | 105 | C=CC(=O)Nc1cccc(Oc2cccc3nc(Nc4cnc5onc(C)c5c4)nn23)c1 [Example 25, N-(3-(2-(3-methylisoxazolo[5,4-b]pyridin-5-ylamino)-[1,2,4]triazolo[1,5-a]pyridin-5-yloxy)phenyl)acrylamide]
27 | 0.6 | CC#CC(=O)Nc1cccc(Oc2cccc3nc(Nc4ccc(N5CCN(C)CC5)cc4)nn23)c1 [Example 20, N-(3-(2-(4-(4-methylpiperazin-1-yl)phenylamino)-[1,2,4]triazolo[1,5-a]pyridin-5-yloxy)phenyl)but-2-ynamide]
